# Values of other authors as cited in patent US10548859B2, “Methods for storing Cysteamine formulations and related methods of treatment” (Horizon Orphan LLC, priority 2015, dated 2020).
# Details: children with cystinosis
structure (smiles),measurement,value
COc1ccc2c(c1)c(CC(=O)O)c(C)n2C(=O)c1ccc(Cl)cc1 [indomethacin],reduction of urine volume and liquid consumption,about 30%
